Measurements reported in ChEMBL document CHEMBL5365500, “Development and Antibacterial Properties of 4-[4-(Anilinomethyl)-3-phenylpyrazol-1-yl]benzoic Acid Derivatives as Fatty Acid Biosynthesis Inhibitors” (J Med Chem, 2023).
≈ marks a conversion by molar mass, not a printed value. Calls of active or inactive are those of the source. The rule behind the calls is not given here.

Legend:
Staphylococcus aureus [1] = test: Antimicrobial activity against methicilline-resistant Staphylococcus aureus ATCC 700699 persisters assessed as reduction in initial persister concentration at 8 times of MIC concentration measured for 8 hrs by Persisters time course assay; type: functional
Staphylococcus aureus [2] = test: Antimicrobial activity against clinical isolate Staphylococcus aureus Smu9 assessed as inhibition of growth measured after 20 to 24 hrs incubation by CLSI method; type: functional; conditions: time 20-24 hrs
Staphylococcus aureus [3] = test: Antimicrobial activity against methicilline-resistant Staphylococcus aureus ATCC 700699 persisters assessed as reduction in initial persister concentration at 2 times of MIC concentration measured for 2 to 8 hrs by Persisters time course assay; type: functional, organism-based; conditions: time 2-8 hrs
Staphylococcus aureus [4] = test: Antimicrobial activity against Staphylococcus aureus UAB159 assessed as inhibition of growth measured after 20 to 24 hrs incubation by CLSI method; type: functional; conditions: time 20-24 hrs
Staphylococcus aureus [5] = test: Antimicrobial activity against clinical isolate Staphylococcus aureus Smu21 assessed as inhibition of growth measured after 20 to 24 hrs incubation by CLSI method; type: functional; conditions: time 20-24 hrs
Cell membrane [6] = test: Induction of membrane permeability in Staphylococcus aureus ATCC 700699 assessed as increase in fluorescence at 8 times of MIC incubated for 15 mins measured for 1 hr by propidium iodide/real time fluorescence based flow cytometry; type: subcellular
Enterococcus faecalis [7] = test: Antimicrobial activity against antibiotic-susceptible Enterococcus faecalis ATCC 29212 assessed as eradication of biofilm measured after 24 hrs incubation by Calgary method; type: functional
Staphylococcus aureus [8] = test: Antimicrobial activity against antibiotic-resistant Staphylococcus aureus ATCC BAA-2312 assessed as inhibition of visible growth measured after 20 to 24 hrs incubation by CLSI method; type: functional; conditions: time 20-24 hrs
Staphylococcus aureus [9] = test: Antimicrobial activity against Staphylococcus aureus ATCC 25923 assessed as inhibition of visible growth measured after 20 to 24 hrs incubation by CLSI method; type: functional; conditions: time 20-24 hrs
Staphylococcus aureus [10] = test: Antimicrobial activity against clinical isolate Staphylococcus aureus Smu81 assessed as inhibition of growth measured after 20 to 24 hrs incubation by CLSI method; type: functional; conditions: time 20-24 hrs
Enterococcus faecalis [11] = test: Antimicrobial activity against Enterococcus faecalis ATCC 29212 assessed as inhibition of biofilm formation by measuring prevention of turbidity after 24 hrs incubation by Real-time monitoring method; type: functional
Staphylococcus aureus [12] = test: Antimicrobial activity against clinical isolate Staphylococcus aureus Smu109 assessed as inhibition of growth measured after 20 to 24 hrs incubation by CLSI method; type: functional; conditions: time 20-24 hrs
[13] = test system: Panel NCI-60 (60 carcinoma cell lines); test: Cytotoxicity against human panel NCI-60 (60 carcinoma cell lines)cells assessed as cell viability at 10 uM measured after 24 hrs by resazurin assay; type: functional, cell-based
Staphylococcus aureus [14] = test: In vivo antimicrobial activity against Staphylococcus aureus UAMS-1 infected in Caenorhabditis elegans AU37 nematodes assessed as viability of nematodes incubated for 5 days by susceptibility test; type: functional; conditions: UAMS-1, 120 h, time 5 day
Staphylococcus aureus [15] = test: Antimicrobial activity against antibiotic-resistant Staphylococcus aureus ATCC 33591 assessed as inhibition of visible growth measured after 20 to 24 hrs incubation by CLSI method; type: functional; conditions: time 20-24 hrs
Staphylococcus aureus [16] = test: Antimicrobial activity against methicilline-resistant Staphylococcus aureus ATCC 700699 persisters assessed as reduction in initial persister concentration at 16 times of MIC concentration measured for 2 hrs by Persisters time course assay; type: functional, organism-based
Enterococcus faecium [17] = test: Antimicrobial activity against Enterococcus faecium […] assessed as inhibition of biofilm formation after 24 hrs incubation by Real-time monitoring method; type: functional
Cell membrane [18] = test: Induction of membrane permeability in Staphylococcus aureus ATCC 700699 assessed as increase in fluorescence at 0.5 to 2 times of MIC incubated for 15 mins measured for 1 hr by propidium iodide/real time fluorescence based flow cytometry; type: subcellular; conditions: time 75.0 min
Staphylococcus aureus [19] = test: Antimicrobial activity against methicilline-resistant Staphylococcus aureus ATCC 700699 persisters assessed as bacterial killing at 32 time of MIC concentration measured for every 2 hrs upto 8 hrs by Persisters time course assay; type: functional, organism-based
Staphylococcus aureus [20] = test: Antimicrobial activity against antibiotic-resistant Staphylococcus aureus ATCC 33592 assessed as inhibition of visible growth measured after 20 to 24 hrs incubation by CLSI method; type: functional; conditions: time 20-24 hrs
Erythrocyte [21] = test: Hemolytic activity in sheep red blood cells assessed as hemolysis at 16 to 32 ug/ml incubated for 30 mins relative to control; type: toxicity, cell-based, Ovis aries; conditions: 0.5 h, dose 16-32 µg/ml
Staphylococcus aureus [22] = test: Resistance development in methicillin-sensitive Staphylococcus aureus ATCC 25923 assessed as fold increase in MIC at 0.5 times of MIC measured at 4 to 6 th passages by multistep resistance assay; type: functional
Staphylococcus aureus [23] = test: Antimicrobial activity against Staphylococcus aureus ATCC 25923 assessed as inhibition of biofilm formation by measuring prevention of turbidity after 24 hrs incubation by Real-time monitoring method; type: functional
Staphylococcus aureus [24] = test: In vivo antimicrobial activity against Staphylococcus aureus USA300 infected in Caenorhabditis elegans AU37 nematodes assessed as viability of nematodes incubated for 5 days by susceptibility test; type: functional; conditions: USA300, 120 h, time 5 day
Bacillus subtilis = test: Antimicrobial activity against antibiotic-resistant Bacillus subtilis ATCC 6623 assessed as inhibition of visible growth measured after 20 to 24 hrs incubation by CLSI method; type: functional; conditions: time 20-24 hrs
Staphylococcus aureus [25] = test: Bactericidal activity in antibiotic-resistant Staphylococcus aureus ATCC 700699 assessed as reduction in viable cell count at 4 times of MIC measured upto 24 hrs by time kill assay; type: functional, organism-based
Erythrocyte [26] = test: Hemolytic activity in sheep red blood cells assessed as hemolysis at 64 ug/ml incubated for 30 mins relative to control; type: toxicity, cell-based, Ovis aries; conditions: 0.5 h, at 64 µg/mL
Staphylococcus aureus [27] = test: Antimicrobial activity against clinical isolate Staphylococcus aureus Smu57 assessed as inhibition of growth measured after 20 to 24 hrs incubation by CLSI method; type: functional; conditions: time 20-24 hrs
Staphylococcus aureus [28] = test: In vivo antimicrobial activity against Staphylococcus aureus Newman infected in Caenorhabditis elegans AU37 nematodes assessed as viability of nematodes incubated for 5 days by susceptibility test; type: functional; conditions: 120 h, time 5 day
Staphylococcus aureus [29] = test: Antimicrobial activity against Staphylococcus aureus ATCC 25923 assessed as eradication of biofilm measured after 24 hrs incubation by Calgary method; type: functional
Staphylococcus aureus [30] = test: Antimicrobial activity against antibiotic-susceptible Staphylococcus aureus ATCC 25923 assessed as inhibition of biofilm formation on plastic coverslips at 0.5 times of MIC measured after 24 hrs by electron microscopy; type: functional, organism-based
Enterococcus faecalis [31] = test: Antimicrobial activity against antibiotic-resistant Enterococcus faecalis ATCC 51299 assessed as inhibition of visible growth measured after 20 to 24 hrs incubation by CLSI method; type: functional; conditions: time 20-24 hrs
Staphylococcus aureus [32] = test: Antimicrobial activity against antibiotic-susceptible Staphylococcus aureus ATCC 25923 assessed as inhibition of biofilm formation by measuring prevention of turbidity after 24 hrs incubation by Real-time monitoring method; type: functional
Enterococcus faecium [33] = test: Antimicrobial activity against antibiotic-resistant Enterococcus faecium ATCC 700221 assessed as inhibition of visible growth measured after 20 to 24 hrs incubation by CLSI method; type: functional; conditions: time 20-24 hrs
Enterococcus faecalis [34] = test: Antimicrobial activity against antibiotic-susceptible Enterococcus faecalis ATCC 29212 assessed as inhibition of biofilm formation by measuring prevention of turbidity after 24 hrs incubation by Real-time monitoring method; type: functional
Staphylococcus aureus [35] = test: Antimicrobial activity against antibiotic-susceptible Staphylococcus aureus ATCC 25923 assessed as inhibition of biofilm formation after 24 hrs incubation by Real-time monitoring method; type: functional

With `O=C(O)c1ccc(-n2cc(CNc3ccc(Br)c(C(F)(F)F)c3)c(-c3cccc(F)c3)n2)cc1` the “log(activity)” value (Staphylococcus aureus [1]) was 6, the MIC (Staphylococcus aureus [2]) was 4 µg/mL (≈ 7.49 µM) and the Activity (Staphylococcus aureus [3]) was “inactive”. The MIC (Staphylococcus aureus [4]) was 4 µg/mL (≈ 7.49 µM), the MIC (Staphylococcus aureus [5]) was 4 µg/mL (≈ 7.49 µM) and the Activity (Cell membrane [6]) was “inactive”. It also gave an MBEC (Enterococcus faecalis [7]) of 2 µg/mL, an MIC (Staphylococcus aureus [8]) of 1 µg/mL (≈ 1.87 µM) and an MIC (Staphylococcus aureus [9]) of 1 µg/mL (≈ 1.87 µM). For the same compound, the MIC (Staphylococcus aureus [10]) was 4 µg/mL (≈ 7.49 µM), the MIC (Enterococcus faecalis [11]) was 8 µg/mL (≈ 15 µM) and the MIC (Staphylococcus aureus [12]) was 2 µg/mL (≈ 3.74 µM). For the same compound, the Activity [13] was “inactive”, the MIC (Staphylococcus aureus [14]) was 1 µg/mL (≈ 1.87 µM) and the MIC (Staphylococcus aureus [15]) was 0.5 µg/mL (≈ 0.936 µM). The Activity (Staphylococcus aureus [16]) was “Active”, the MBIC (Enterococcus faecium [17]) was 8 µg/mL and the Activity (Cell membrane [18]) was “inactive”. The Activity (Staphylococcus aureus [19]) was “Active”, the MIC (Staphylococcus aureus [20]) was 0.5 µg/mL (≈ 0.936 µM) and the Activity (Erythrocyte [21]) was “Non-Toxic”. For the same compound, the “fold change (FC)” value (Staphylococcus aureus [22]) was 2, the MIC (Staphylococcus aureus [23]) was 2 µg/mL (≈ 3.74 µM) and the MIC (Staphylococcus aureus [24]) was 1 µg/mL (≈ 1.87 µM). The MIC (Bacillus subtilis) was 0.5 µg/mL (≈ 0.936 µM), the Activity (Staphylococcus aureus [25]) was “Active” and the Activity (Erythrocyte [26]) was under 10%. It also gave an MIC (Staphylococcus aureus [27]) of 2 µg/mL (≈ 3.74 µM) and an MIC (Staphylococcus aureus [28]) of 1 µg/mL (≈ 1.87 µM).

For `CN[C@H](CC(C)C)C(=O)N[C@H]1C(=O)N[C@@H](CC(N)=O)C(=O)N[C@H]2C(=O)N[C@H]3C(=O)N[C@H](C(=O)N[C@H](C(=O)O)c4cc(O)cc(O)c4-c4cc3ccc4O)[C@H](O)c3ccc(c(Cl)c3)Oc3cc2cc(c3O[C@@H]2O[C@H](CO)[C@@H](O)[C@H](O)[C@H]2O[C@H]2C[C@](C)(N)[C@H](O)[C@H](C)O2)Oc2ccc(cc2Cl)[C@H]1O` [VANCOMYCIN], the MBEC (Staphylococcus aureus [29]) was over 32 µg/mL, the Activity (Staphylococcus aureus [30]) was “Active” and the MIC (Enterococcus faecalis [31]) was over 32 µg/mL. For the same compound, the MBBC (Staphylococcus aureus [32]) was over 16 µg/mL, the MBIC (Enterococcus faecium [17]) was over 16 µg/mL and the MIC (Enterococcus faecium [33]) was over 32 µg/mL. It also gave an MIC (Staphylococcus aureus [23]) of 8 µg/mL (≈ 5.52 µM), an MBBC (Enterococcus faecalis [34]) of over 16 µg/mL and an MIC (Bacillus subtilis) of 0.25 µg/mL (≈ 0.173 µM). For the same compound, the MBIC (Staphylococcus aureus [35]) was over 16 µg/mL.
